Tests used:
Type in all cases: cell-based
[1] = tested on: cholesterol in lipid rafts of SH-SY5Y cell; assay: Quantification of cholesterol content in sucrose density-gradient cell membrane fractions (lipid rafts = fraction 3); details: for cholesterol content in lipid rafts (fraction 3): 5% LPDS, 48 hours, FIG. 4
Method: (§1) SH-SY5Y cell line (Invitrogen) was subcultured in a complete medium (DMEM (Sigma) containing 10% of fetal bovine serum (Sigma), 100 units/mL of penicillin and […] of streptomycin) using a dish of 15 cm diameter at 37° C.
(§2) The SH-SY5Y cell was cultured in a dish of 15 cm diameter, and the cells reached confluent growth in the dish was washed with phosphate buffered saline (PBS). The cells were detached from the dish using cell scraper and recovered in PBS, then centrifuged at 9807 m/s^2 for 5 minutes. The precipitated cells were suspended in buffer R (20 mM Tris-HCl pH 7.6, 150 mM NaCl, 1 mM EDTA) containing 200 μL of a mixture of 2% CHAPSO and proteases (Complete protease mixture) (Roche). Solubilization of the cell was performed by means of leaving the cell suspension for standing on an ice bath for 20 minutes. After solubilizing, 800 μL of the buffer R containing 56.25% sucrose was added to make the final concentration to be 45% sucrose and 0.4% CHAPSO, and placed in the bottom of centrifuging tube. Further, 3 mL of the buffer R containing 35% sucrose and 1 mL of the buffer R containing 5% sucrose were overlaid sequentially on top of the layers. After centrifugation at 980700 m/s^2 (32000 rpm) for 16 hours at 4° C. using Beckman ultracentrifuge equipped with SW55 rotor, each 500 μL aliquot was withdrawn from top as fractions.
(§3) The SH-SY5Y cell was cultured in a dish of 15 cm diameter, and the cells reached confluent growth in the dish were washed with PBS. After that, methyl-β-cyclodextrin (Sigma) dissolved in DMEM to make the final concentration to be 0 to 2 mM was added to the dish, and cultured at 37° C. for another 30 minutes. These cells were processed and fractionated according to the method described in the Reference Example 2, and subjected to the immunoblotting.
The SH-SY5Y cell was cultured in a dish of 15 cm diameter and the cells of just before arriving confluent growth in a dish were washed with PBS. […]

[2] = tested on: active complex of γ-secretase (nicastrin, presenilin-1, presenilin-2, Pen-2) in lipid rafts of SH-SY5Y cell; assay: Immunoblotting of γ-secretase constituents in sucrose density-gradient cell membrane fractions; details: for constituents of γ-secretase (nicastrin, presenilin-1, presenilin-2) in lipid rafts fraction (fraction 3): FIG. 3A-3C
Method: as §1, §2
(§4) After SDS-polyacrylamide gel electrophoresis was carried out for each fraction obtained in the Reference Example 2, immunoblotting was performed. The antibodies used were nicastrin N-19 (Santa Cruz) as a nicastrin recognizing antibody, anti-G1L3 as an antibody recognizing C-terminal region of presenilin 1, anti-G2L as an antibody recognizing C-terminal region of presenilin 2, anti-PNT3 as a PEN-2 recognizing antibody, Flotillin-1 (BD Sciences) as a flotillin-1 recognizing antibody, and Calnexin (BD Biosciences) as a calnexin recognizing antibody.
After reacting at room temperature for 1 hour or at 4° C. overnight, the gels were washed twice with TBS-Tween (20 mM Tris-buffered saline, pH 7.4, 0.05% Tween 20). Then, the gels were reacted with HRP-conjugated anti mouse IgG antibody, anti goat IgG antibody, or anti rabbit IgG antibody each for 1 hour, and washed with TBS-Tween. And then, an X-ray film was exposed to the chemiluminescence generated using SuperSignal West Dura (Pierce).
as §3
The SH-SY5Y cell was cultured in a dish of 15 cm diameter and the cells of just before arriving confluent growth in a dish were washed with PBS. After that, the cells were cultured in DMEM containing 5% of LPDS, 250 μM of mevalonic acid and 50 μM of compactin or 5 μM of pitavastatin as a cholesterol synthesis inhibitor for 48 hours. These cells were processed and fractionated according to the method described in the Reference Example 2, and subjected to the immunoblotting.

[3] = tested on: flotillin-1 (marker protein of lipid rafts), SH-SY5Y cell; assay: Immunoblotting of lipid raft marker flotillin-1 in sucrose density-gradient cell membrane fractions; details: for flotillin in the lipid rafts fraction (structure of lipid rafts): 48 hours, FIG. 3D
Method: as §1, §2, §4
After reacting at room temperature for 1 hour or at 4° C. overnight, the gels were washed twice with TBS-Tween (20 mM Tris-buffered saline, pH 7.4, 0.05% Tween 20). […]

[4] = 50 μM compactin plus 250 μM mevalonic acid
[5] = 50 μM compactin plus 250 μM mevalonic acid, 48 hours
[6] = 5 μM pitavastatin plus 250 μM mevalonic acid
[7] = 5 μM pitavastatin plus 250 μM mevalonic acid, 48 hours

CC[C@H](C)C(=O)O[C@H]1CCC=C2C=C[C@H](C)[C@H](CC[C@@H]3C[C@@H](O)CC(=O)O3)[C@H]21 [compactin, (+)-(1S,3R,7S,8S.8aR)-1,2,3,7,8,8a-hexahydro-7-methyl-8-[2-[(2R,4R)-tetrahydro-4-hydroxy-6-oxo-2H-pyran-2-yl]ethyl]-1-naphthyl (S)-2-methylbutyrate]
cholesterol content in lipid rafts (fraction 3) [1, 4]: decreased
formation of an active complex of γ-secretase in lipid rafts [2, 5]: inhibited the formation of an active complex of γ-secretase in lipid rafts
constituents of γ-secretase (nicastrin, presenilin-1, presenilin-2) in lipid rafts fraction (fraction 3) [2, 5]: disappeared from lipid rafts fraction
flotillin in the lipid rafts fraction (structure of lipid rafts) [3, 4]: still remained in the lipid rafts fraction

O=C(O)C[C@H](O)C[C@H](O)/C=C/c1c(C2CC2)nc2ccccc2c1-c1ccc(F)cc1 [pitavastatin, (3R,5S,6E)-7-[2-cyclopropyl-4-(4-fluorophenyl)-3-quinolyl]-3,5-dihydroxy-6-heptenoic acid]
cholesterol content in lipid rafts (fraction 3) [1, 6]: decreased
formation of an active complex of γ-secretase in lipid rafts [2, 7]: inhibited the formation of an active complex of γ-secretase in lipid rafts
constituents of γ-secretase (nicastrin, presenilin-1, presenilin-2) in lipid rafts fraction (fraction 3) [2, 7]: disappeared from lipid rafts fraction
flotillin in the lipid rafts fraction (structure of lipid rafts) [3, 6]: still remained in the lipid rafts fraction

methyl-β-cyclodextrin
cholesterol in lipid rafts (fraction 3) ([1]; methyl-β-cyclodextrin 0 to 2 mM, 30 minutes, 37° C., FIG. 2): removed from lipid rafts
formation of an active complex of γ-secretase in lipid rafts ([2]; methyl-β-cyclodextrin 0 to 2 mM, 30 minutes): inhibited the formation of an active complex of γ-secretase in lipid rafts
constituents of γ-secretase (nicastrin, presenilin-1, presenilin-2, Pen-2) in lipid rafts fraction (fraction 3) ([2]; methyl-β-cyclodextrin 0 to 2 mM, 30 minutes, FIG. 1A-1D): disappeared from lipid rafts fraction
distribution of flotillin (marker protein of lipid rafts) among fractions / raft structure ([3]; methyl-β-cyclodextrin 0 to 2 mM, 30 minutes, FIG. 1E): moved from the original position of the lipid rafts of fraction 3 to fraction 9 and 10
